Among the data in ChEMBL document CHEMBL3991601, “The target landscape of clinical kinase drugs” (Science, 2017) are Kd values, retold here.

For test [1], the target named is T1, Peroxisomal acyl-coenzyme A oxidase 1 (Homo sapiens, UniProt Q15067).
T1 sequence (Q15067 whole entry): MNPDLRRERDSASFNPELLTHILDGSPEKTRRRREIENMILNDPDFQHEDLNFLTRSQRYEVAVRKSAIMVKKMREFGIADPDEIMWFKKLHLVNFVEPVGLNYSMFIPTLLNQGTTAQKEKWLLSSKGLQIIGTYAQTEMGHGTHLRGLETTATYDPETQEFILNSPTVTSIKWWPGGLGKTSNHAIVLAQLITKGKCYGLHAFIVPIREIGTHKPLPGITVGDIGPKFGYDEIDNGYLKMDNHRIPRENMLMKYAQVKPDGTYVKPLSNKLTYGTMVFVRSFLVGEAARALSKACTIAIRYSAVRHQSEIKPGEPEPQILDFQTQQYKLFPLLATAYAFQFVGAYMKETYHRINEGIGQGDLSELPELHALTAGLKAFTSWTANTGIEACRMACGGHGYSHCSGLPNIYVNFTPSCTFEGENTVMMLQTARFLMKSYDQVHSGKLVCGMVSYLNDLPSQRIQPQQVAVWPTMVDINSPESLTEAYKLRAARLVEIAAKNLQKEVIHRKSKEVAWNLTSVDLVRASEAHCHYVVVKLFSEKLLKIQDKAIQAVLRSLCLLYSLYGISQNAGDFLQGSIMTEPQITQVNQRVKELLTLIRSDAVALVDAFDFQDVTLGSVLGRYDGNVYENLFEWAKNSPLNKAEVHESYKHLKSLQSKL

A further test addresses T2, Activin receptor type-1B (Homo sapiens, UniProt P36896).
T2 sequence (P36896 whole entry): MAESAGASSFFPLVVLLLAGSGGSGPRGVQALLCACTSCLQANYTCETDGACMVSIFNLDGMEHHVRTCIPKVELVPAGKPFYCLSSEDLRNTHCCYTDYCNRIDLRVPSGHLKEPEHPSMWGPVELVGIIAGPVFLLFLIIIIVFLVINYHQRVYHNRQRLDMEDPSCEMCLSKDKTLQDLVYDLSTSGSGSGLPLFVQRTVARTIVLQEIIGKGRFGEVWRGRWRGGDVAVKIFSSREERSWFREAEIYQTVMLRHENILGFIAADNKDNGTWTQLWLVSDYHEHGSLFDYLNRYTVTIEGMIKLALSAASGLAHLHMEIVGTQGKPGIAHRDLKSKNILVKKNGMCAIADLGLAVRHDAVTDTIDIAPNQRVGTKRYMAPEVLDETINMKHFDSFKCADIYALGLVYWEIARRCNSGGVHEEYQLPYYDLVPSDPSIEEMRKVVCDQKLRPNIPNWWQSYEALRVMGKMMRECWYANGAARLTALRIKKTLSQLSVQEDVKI

Test [2] has as its target Casein kinase I isoform delta (Homo sapiens, UniProt P48730).
The target of another test is T3, Ephrin type-B receptor 3 (Homo sapiens, UniProt P54753).
T3 sequence (P54753 whole entry): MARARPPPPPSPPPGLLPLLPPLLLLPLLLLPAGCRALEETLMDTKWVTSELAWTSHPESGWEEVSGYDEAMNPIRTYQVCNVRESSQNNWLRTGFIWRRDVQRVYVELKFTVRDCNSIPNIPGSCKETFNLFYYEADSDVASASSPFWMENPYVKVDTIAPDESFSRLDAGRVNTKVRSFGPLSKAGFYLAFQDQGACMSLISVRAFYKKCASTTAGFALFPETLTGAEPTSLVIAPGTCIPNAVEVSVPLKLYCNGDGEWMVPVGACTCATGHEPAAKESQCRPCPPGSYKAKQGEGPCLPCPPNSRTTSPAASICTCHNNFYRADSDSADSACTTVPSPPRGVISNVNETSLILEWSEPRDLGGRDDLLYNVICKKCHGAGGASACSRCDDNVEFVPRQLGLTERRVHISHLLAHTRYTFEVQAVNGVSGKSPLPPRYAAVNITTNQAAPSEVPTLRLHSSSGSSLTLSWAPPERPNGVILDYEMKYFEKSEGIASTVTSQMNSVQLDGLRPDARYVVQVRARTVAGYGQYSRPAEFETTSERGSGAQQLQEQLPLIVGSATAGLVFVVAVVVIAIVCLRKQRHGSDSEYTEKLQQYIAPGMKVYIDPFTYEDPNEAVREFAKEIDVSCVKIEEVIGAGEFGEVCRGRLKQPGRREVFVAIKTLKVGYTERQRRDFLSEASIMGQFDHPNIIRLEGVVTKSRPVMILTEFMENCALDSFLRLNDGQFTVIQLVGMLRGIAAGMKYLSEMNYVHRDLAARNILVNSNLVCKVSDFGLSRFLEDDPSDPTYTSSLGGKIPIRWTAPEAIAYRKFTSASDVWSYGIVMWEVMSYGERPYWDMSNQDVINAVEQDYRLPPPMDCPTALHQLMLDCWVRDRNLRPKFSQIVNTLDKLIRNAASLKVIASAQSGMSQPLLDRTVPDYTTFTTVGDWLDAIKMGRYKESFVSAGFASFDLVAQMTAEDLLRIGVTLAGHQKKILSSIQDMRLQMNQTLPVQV

Test [3] deals with Tyrosine-protein kinase FRK (Homo sapiens, UniProt P42685).
Test [4] has as its target Tyrosine-protein kinase HCK (Homo sapiens, UniProt P08631).
The target in another test is T4, Scaffold protein ILK (Homo sapiens, UniProt Q13418).
T4 sequence (Q13418 whole entry): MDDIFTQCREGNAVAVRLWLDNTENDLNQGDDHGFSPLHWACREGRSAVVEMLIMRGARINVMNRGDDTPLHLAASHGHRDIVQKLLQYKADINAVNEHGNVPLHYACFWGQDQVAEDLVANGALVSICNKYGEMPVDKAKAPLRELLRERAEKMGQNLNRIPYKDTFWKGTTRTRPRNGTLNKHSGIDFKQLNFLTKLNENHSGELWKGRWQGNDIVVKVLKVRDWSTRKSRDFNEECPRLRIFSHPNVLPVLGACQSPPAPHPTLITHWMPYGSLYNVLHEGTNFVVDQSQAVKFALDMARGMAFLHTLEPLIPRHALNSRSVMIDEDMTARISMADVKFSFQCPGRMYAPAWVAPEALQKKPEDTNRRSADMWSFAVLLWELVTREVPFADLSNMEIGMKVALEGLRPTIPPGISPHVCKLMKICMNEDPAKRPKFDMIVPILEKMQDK

Test [5] concerns the target Mitogen-activated protein kinase kinase kinase 1 (Homo sapiens, UniProt Q13233).
Test [6] has as its target Ribosomal protein S6 kinase alpha-5 (Homo sapiens, UniProt O75582).
The target in test [7] is Proto-oncogene tyrosine-protein kinase Src (Homo sapiens, UniProt P12931).

The source made the active and inactive calls. Cut-off read from the data, not from the text of the source, for most assays here: actives have a measured Kd and inactives only a lower limit.
Note: in the data inactive means no Kd found up to 30 µM.

Chain of Casein kinase I isoform delta (P48730 whole entry, canonical isoform): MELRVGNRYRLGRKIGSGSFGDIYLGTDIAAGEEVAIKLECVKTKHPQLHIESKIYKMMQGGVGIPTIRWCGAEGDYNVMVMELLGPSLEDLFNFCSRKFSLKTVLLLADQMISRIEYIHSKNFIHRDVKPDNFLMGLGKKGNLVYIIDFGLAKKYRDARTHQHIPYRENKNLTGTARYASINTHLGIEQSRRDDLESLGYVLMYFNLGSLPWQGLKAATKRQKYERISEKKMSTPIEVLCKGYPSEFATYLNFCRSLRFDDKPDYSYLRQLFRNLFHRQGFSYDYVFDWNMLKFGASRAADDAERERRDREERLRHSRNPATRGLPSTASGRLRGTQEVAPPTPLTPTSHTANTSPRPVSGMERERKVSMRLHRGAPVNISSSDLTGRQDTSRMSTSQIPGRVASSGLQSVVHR
Chain of Ribosomal protein S6 kinase alpha-5 (O75582 whole entry): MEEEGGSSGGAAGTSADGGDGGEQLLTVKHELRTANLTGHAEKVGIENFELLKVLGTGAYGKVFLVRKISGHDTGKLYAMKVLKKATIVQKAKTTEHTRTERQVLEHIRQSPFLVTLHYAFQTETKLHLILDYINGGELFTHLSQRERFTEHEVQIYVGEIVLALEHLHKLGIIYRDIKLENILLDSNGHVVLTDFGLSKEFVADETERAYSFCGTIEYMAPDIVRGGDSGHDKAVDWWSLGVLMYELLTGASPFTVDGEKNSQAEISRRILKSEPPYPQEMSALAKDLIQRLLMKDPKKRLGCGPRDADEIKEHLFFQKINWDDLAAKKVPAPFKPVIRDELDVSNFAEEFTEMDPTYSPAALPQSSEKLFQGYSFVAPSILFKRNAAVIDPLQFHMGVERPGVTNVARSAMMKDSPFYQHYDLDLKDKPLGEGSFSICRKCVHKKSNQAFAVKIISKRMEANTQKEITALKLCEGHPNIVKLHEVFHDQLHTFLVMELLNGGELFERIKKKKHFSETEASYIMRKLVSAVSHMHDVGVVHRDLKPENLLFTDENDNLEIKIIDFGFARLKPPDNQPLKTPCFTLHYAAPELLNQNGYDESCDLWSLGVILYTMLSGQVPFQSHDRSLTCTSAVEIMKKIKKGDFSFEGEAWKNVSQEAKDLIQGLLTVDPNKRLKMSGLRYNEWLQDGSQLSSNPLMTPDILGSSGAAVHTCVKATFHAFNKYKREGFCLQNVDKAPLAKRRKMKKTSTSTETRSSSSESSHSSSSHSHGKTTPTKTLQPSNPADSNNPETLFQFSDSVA
Chain of Proto-oncogene tyrosine-protein kinase Src (P12931 2-536 limits assumed): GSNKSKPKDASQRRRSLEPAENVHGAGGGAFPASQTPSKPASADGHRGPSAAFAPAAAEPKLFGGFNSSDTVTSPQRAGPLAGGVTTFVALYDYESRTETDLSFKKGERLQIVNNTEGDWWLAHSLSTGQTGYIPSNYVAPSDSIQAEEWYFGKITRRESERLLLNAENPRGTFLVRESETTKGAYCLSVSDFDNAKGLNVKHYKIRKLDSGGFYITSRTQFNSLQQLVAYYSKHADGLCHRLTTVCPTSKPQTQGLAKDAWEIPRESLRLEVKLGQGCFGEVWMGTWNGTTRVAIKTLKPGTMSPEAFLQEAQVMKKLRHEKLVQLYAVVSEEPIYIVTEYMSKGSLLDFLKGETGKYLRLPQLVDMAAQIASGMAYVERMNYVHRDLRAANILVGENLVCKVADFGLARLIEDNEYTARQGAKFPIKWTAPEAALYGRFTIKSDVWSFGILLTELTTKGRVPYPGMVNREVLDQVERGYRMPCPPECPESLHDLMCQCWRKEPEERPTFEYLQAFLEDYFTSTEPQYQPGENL
Chain of Mitogen-activated protein kinase kinase kinase 1 (Q13233 whole entry): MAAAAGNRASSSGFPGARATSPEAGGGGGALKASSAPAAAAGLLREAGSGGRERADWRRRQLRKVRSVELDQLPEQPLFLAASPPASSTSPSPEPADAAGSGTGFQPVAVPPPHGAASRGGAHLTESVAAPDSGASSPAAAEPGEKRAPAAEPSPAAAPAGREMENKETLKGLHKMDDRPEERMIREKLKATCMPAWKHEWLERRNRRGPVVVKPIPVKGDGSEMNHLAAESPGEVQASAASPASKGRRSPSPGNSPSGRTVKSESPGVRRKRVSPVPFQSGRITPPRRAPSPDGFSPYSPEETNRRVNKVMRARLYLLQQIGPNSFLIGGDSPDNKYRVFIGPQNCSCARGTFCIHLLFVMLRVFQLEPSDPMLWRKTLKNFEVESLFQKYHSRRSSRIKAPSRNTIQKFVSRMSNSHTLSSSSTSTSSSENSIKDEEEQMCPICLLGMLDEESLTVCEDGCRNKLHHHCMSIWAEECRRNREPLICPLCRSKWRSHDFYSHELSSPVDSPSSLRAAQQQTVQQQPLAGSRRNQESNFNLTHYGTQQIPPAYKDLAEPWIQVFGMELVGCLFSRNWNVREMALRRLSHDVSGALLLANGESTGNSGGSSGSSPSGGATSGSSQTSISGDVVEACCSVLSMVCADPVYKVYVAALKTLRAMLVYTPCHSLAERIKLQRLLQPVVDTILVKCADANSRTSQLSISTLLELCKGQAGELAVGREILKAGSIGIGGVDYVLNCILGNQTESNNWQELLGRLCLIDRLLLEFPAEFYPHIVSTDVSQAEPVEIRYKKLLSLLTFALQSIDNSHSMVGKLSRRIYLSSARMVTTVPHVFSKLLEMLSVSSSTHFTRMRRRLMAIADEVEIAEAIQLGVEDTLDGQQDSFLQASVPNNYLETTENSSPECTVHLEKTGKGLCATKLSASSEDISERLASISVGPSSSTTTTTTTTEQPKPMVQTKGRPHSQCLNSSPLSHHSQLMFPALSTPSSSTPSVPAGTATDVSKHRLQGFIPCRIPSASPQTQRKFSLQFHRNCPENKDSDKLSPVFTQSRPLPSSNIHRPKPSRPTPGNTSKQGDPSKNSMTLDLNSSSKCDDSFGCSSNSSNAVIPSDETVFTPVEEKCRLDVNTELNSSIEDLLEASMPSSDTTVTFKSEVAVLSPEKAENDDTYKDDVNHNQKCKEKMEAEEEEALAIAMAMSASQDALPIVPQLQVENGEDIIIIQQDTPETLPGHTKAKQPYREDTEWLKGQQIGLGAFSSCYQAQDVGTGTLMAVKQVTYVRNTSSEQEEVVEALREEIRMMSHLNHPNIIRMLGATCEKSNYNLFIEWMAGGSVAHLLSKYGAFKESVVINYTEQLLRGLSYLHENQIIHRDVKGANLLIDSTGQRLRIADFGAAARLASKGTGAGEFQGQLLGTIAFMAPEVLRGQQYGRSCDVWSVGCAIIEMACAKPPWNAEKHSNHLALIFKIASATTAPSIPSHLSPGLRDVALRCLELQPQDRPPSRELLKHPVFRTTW
Chain of Tyrosine-protein kinase HCK (P08631 whole entry): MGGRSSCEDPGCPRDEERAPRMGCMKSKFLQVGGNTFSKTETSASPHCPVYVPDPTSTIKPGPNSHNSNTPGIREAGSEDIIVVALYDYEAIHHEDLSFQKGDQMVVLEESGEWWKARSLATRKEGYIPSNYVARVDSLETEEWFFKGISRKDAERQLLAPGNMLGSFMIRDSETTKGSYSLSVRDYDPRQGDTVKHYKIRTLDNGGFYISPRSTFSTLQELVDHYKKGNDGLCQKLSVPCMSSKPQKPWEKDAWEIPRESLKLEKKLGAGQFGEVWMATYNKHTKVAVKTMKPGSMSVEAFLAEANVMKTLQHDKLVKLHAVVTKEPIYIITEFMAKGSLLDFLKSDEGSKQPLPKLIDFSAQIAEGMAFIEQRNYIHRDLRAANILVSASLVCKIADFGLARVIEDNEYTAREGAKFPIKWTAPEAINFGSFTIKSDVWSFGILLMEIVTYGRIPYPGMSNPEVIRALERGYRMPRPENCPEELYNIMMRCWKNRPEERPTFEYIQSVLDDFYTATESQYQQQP
Chain of Tyrosine-protein kinase FRK (P42685 whole entry): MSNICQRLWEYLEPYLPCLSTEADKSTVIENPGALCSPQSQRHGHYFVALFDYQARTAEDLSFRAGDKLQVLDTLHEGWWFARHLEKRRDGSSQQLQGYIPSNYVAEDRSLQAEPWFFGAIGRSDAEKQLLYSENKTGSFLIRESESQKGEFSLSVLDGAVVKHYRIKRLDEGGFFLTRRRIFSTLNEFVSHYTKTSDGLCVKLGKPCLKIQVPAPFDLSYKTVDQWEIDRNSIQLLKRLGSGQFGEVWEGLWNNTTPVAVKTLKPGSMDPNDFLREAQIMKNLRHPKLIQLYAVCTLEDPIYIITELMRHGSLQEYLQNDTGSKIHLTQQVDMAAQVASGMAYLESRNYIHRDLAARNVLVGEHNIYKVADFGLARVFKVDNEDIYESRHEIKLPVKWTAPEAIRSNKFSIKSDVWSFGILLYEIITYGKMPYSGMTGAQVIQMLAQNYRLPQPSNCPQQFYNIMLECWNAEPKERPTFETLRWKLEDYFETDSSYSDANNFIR

As for `CC(C)(C)c1nc(-c2cccc(NS(=O)(=O)c3c(F)cccc3F)c2F)c(-c2ccnc(N)n2)s1` [DABRAFENIB], the Kd is > 30 µM (inactive) in [1]; 0.601 µM (active) on Activin receptor type-1B; > 30 µM (inactive) in test [2]; > 30 µM (inactive) at Ephrin type-B receptor 3; 0.727 µM (active) in [3]; 1.65 µM in test [4]. Further, the Kd (at Scaffold protein ILK; in [5]; in test [6]; in test [7]) was > 30 µM (inactive) in each case.

For `O=C(Nc1nc2cccc(-c3ccc(CN4CCS(=O)(=O)CC4)cc3)n2n1)C1CC1` [FILGOTINIB], the Kd (in [1]; on Activin receptor type-1B; in test [2]; at Ephrin type-B receptor 3; in [3]; in test [4]) was > 30 µM (inactive) throughout. The Kd (at Scaffold protein ILK; in [5]; in [6]; in test [7]) was > 30 µM (inactive) throughout.

Turning to `Cc1cccc(-c2nn3c(c2-c2ccnc4ccc(C(N)=O)cc24)CCC3)n1` [GALUNISERTIB], the Kd in test [1] is > 30 µM (inactive); on Activin receptor type-1B it was 0.016 µM (active); in [2], 16.1 µM (active); on Ephrin type-B receptor 3 it was > 30 µM (inactive); in test [3] it was > 30 µM (inactive); in test [4] it was > 30 µM (inactive). Also, the Kd (on Scaffold protein ILK; in test [5]; in test [6]; in [7]) was > 30 µM (inactive) throughout.

Take `O=C(Nc1cc(C(F)(F)F)cc(C(F)(F)F)c1)c1cc(Cl)ccc1O` [IMD-0354]: the Kd (in test [1]; on Activin receptor type-1B; in [2]; on Ephrin type-B receptor 3; in test [3]; in [4]) was > 30 µM (inactive) each time. The Kd (on Scaffold protein ILK; in [5]; in test [6]; in [7]) was > 30 µM (inactive) throughout.

Regarding `CNC(=O)c1cccc2cc(Oc3ccnc4cc(OCC5(N)CC5)c(OC)cc34)ccc12` [LUCITANIB], the Kd (in test [1]; at Activin receptor type-1B; in test [2]; on Ephrin type-B receptor 3; in test [3]; in test [4]) was > 30 µM (inactive) throughout. Also, the Kd (on Scaffold protein ILK; in [5]; in test [6]; in [7]) was > 30 µM (inactive) each time.

As to `CN(C[C@@H]1COCCO1)S(=O)(=O)Nc1ccc2ccc3ncc(-c4cnn(C)c4)cc3c(=O)c2c1` [MK-2461], the Kd (in test [1]; on Activin receptor type-1B; in test [2]; on Ephrin type-B receptor 3; in test [3]; in test [4]) was > 30 µM (inactive) throughout. The Kd (at Scaffold protein ILK; in test [5]; in test [6]; in test [7]) was > 30 µM (inactive) each time.

For `Cn1cc(-c2cnc3ccc4ccc(CS(=O)(=O)NCc5ccccn5)cc4c(=O)c3c2)cn1` [MK-8033], the Kd (in test [1]; at Activin receptor type-1B; in test [2]; on Ephrin type-B receptor 3; in test [3]; in test [4]) was > 30 µM (inactive) in each case. Besides, the Kd (at Scaffold protein ILK; in [5]; in test [6]; in [7]) was > 30 µM (inactive) each time.

For `FC(F)(F)c1ccc(/C=C/c2nc(COc3ccc(CCCCn4ccnn4)cc3)co2)cc1` [MUBRITINIB], the Kd (in test [1]; at Activin receptor type-1B; in test [2]; at Ephrin type-B receptor 3; in [3]; in test [4]) was > 30 µM (inactive) in each case. For the same compound, the Kd (at Scaffold protein ILK; in test [5]; in [6]; in test [7]) was > 30 µM (inactive) throughout.

With `CCOc1cc2ncc(C#N)c(Nc3ccc(F)c(Cl)c3)c2cc1NC(=O)/C=C/CN(C)C` [PELITINIB], the Kd is > 30 µM (inactive) in [1]; > 30 µM (inactive) on Activin receptor type-1B; 3.88 µM (active) in test [2]; > 30 µM (inactive) at Ephrin type-B receptor 3; > 30 µM (inactive) in test [3]; 1.18 µM (active) in test [4]. Further, the Kd at Scaffold protein ILK is > 30 µM (inactive); in [5] it was 0.097 µM (active); in test [6], > 30 µM (inactive); in test [7], > 30 µM (inactive).

For `CCCCCCCCCCCCCCCCCCOP(=O)([O-])OC1CC[N+](C)(C)CC1` [PERIFOSINE], the Kd (in test [1]; on Activin receptor type-1B; in test [2]; at Ephrin type-B receptor 3; in [3]; in [4]) was > 30 µM (inactive) each time. The Kd (at Scaffold protein ILK; in test [5]; in test [6]; in [7]) was > 30 µM (inactive) throughout.
